# Source: ChEMBL document CHEMBL1201862, “PubChem BioAssay data set” (2004)
# Activity calls are given as the source filed them.
# Tests used:
# [1] = biological target: Protein disulfide-isomerase (Homo sapiens, UniProt P07237); experiment: PDI inhibitors, insulin aggregation turbidity, dose response, biochemical, absorbance, cherry-picked samples (AID 602350); type: functional
# Cytochrome P450 3A4 = Cytochrome P450 3A4 (Homo sapiens, UniProt P08684); conditions: Potency;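 note: confirmatory qHTS run detecting inhibitors and substrates of CYP3A4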
# Sequence of Cytochrome P450 3A4 (P08684 whole entry): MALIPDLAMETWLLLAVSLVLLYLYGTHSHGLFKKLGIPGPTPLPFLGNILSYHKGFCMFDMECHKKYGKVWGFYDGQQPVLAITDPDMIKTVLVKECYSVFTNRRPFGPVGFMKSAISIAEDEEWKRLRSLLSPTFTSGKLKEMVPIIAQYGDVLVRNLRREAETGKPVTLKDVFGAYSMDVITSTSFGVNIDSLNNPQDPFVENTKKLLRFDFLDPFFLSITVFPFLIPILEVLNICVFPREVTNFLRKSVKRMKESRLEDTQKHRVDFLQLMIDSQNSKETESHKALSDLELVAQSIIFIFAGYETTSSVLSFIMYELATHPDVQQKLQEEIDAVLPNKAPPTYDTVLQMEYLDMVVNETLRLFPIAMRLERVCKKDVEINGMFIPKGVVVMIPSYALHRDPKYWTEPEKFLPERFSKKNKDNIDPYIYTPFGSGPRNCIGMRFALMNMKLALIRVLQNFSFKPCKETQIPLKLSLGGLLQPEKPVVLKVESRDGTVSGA
# [2] = biological target: Aryl hydrocarbon receptor (Homo sapiens, UniProt P35869); conditions: Potency;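 note: confirmatory quantitative high-throughput screen measuring activation of the AhR signaling pathway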
# Sequence of Aryl hydrocarbon receptor (P35869 whole entry): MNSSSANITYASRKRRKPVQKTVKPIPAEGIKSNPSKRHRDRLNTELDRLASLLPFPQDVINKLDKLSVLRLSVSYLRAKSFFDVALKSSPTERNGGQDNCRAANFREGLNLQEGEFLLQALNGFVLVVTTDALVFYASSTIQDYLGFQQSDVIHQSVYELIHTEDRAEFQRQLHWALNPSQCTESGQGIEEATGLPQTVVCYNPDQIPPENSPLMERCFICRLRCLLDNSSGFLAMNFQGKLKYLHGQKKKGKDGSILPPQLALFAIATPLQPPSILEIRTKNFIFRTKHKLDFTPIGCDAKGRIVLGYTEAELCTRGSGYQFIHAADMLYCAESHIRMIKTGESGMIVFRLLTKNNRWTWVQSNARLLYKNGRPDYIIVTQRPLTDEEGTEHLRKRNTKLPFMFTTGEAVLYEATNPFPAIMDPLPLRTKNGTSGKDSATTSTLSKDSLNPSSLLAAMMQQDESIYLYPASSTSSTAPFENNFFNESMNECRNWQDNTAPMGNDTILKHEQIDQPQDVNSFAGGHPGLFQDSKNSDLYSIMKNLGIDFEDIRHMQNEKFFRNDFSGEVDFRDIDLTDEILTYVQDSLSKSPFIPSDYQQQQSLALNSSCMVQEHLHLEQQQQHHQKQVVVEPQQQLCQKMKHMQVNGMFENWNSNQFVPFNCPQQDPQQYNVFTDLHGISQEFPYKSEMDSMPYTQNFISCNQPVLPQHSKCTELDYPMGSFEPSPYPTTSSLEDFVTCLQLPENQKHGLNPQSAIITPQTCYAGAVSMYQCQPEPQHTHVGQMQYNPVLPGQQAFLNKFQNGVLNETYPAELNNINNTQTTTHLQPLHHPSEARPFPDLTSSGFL
# [3] = biological target: T1, Sentrin-specific protease 8 (Homo sapiens, UniProt Q96LD8); experiment: SENP8 protease inhibitors, SAR follow-up, biochemical, luminescence (AID 504501); type: functional
# T1 sequence (Q96LD8 whole entry): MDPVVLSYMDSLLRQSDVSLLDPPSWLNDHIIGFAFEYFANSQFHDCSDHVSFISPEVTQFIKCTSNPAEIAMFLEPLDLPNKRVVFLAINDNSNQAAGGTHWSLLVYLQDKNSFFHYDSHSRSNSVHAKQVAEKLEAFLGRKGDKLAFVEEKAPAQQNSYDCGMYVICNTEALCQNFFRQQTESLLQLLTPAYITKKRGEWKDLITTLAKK
# [4] = biological target: T2, Sentrin-specific protease 6 (Homo sapiens, UniProt Q9GZR1); experiment: SAR Analysis of small molecule inhibitors of Sentrin-specific protease 6 (SENP6) using a Luminescent assay. [Related pubchem assays (depositor defined):AID2582, AID2599]; type: functional
# T2 sequence (Q9GZR1 whole entry): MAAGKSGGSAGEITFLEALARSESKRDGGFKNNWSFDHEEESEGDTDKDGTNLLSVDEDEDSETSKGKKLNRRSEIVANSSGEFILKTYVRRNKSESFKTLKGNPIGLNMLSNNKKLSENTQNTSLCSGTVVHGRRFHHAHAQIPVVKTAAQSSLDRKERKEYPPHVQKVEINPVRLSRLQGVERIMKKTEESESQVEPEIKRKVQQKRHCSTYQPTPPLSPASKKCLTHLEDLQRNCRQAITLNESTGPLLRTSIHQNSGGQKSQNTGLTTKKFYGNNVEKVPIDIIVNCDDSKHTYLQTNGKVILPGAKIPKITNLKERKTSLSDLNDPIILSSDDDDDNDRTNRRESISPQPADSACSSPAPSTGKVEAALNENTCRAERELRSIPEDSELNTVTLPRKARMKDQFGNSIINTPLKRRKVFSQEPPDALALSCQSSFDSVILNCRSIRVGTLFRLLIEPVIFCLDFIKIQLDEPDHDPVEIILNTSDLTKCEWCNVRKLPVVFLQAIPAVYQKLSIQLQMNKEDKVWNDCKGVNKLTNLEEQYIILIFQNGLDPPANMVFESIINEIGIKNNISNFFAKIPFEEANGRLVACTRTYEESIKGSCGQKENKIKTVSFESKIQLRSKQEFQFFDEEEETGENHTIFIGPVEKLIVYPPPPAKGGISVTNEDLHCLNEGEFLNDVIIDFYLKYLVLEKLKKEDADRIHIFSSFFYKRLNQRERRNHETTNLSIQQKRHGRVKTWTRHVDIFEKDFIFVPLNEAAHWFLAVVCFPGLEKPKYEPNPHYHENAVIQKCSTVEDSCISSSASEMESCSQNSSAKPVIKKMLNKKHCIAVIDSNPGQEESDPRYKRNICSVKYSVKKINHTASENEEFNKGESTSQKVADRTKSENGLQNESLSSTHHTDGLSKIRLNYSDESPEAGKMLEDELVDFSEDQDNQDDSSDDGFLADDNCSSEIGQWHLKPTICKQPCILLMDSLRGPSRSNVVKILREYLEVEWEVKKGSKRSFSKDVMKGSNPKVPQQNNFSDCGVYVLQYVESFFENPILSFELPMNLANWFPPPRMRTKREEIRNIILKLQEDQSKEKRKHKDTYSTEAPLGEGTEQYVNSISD
# Caspase-3 = biological target: T3, Caspase-3 (Homo sapiens, UniProt P42574); experiment: SAR Analysis of small molecule inhibitors of Sentrin-specific proteases (SENPs) using a Caspase-3 Selectivity assay. [Related pubchem assays (depositor defined):AID2540, AID2599, AID434973, AID489001]; type: functional
# T3 sequence (P42574 whole entry): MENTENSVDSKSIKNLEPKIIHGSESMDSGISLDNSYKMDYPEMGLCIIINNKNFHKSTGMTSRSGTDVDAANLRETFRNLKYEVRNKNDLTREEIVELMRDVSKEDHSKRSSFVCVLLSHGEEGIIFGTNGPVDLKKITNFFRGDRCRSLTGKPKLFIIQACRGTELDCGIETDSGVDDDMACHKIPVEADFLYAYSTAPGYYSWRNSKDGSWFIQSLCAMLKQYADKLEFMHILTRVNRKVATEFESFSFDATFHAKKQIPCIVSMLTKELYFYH
# [5] = biological target: T4, Sentrin-specific protease 7 (Homo sapiens, UniProt Q9BQF6); experiment: SENP7 protease inhibitors, SAR follow-up, biochemical, luminescence (AID 504497); type: functional
# T4 sequence (Q9BQF6 whole entry): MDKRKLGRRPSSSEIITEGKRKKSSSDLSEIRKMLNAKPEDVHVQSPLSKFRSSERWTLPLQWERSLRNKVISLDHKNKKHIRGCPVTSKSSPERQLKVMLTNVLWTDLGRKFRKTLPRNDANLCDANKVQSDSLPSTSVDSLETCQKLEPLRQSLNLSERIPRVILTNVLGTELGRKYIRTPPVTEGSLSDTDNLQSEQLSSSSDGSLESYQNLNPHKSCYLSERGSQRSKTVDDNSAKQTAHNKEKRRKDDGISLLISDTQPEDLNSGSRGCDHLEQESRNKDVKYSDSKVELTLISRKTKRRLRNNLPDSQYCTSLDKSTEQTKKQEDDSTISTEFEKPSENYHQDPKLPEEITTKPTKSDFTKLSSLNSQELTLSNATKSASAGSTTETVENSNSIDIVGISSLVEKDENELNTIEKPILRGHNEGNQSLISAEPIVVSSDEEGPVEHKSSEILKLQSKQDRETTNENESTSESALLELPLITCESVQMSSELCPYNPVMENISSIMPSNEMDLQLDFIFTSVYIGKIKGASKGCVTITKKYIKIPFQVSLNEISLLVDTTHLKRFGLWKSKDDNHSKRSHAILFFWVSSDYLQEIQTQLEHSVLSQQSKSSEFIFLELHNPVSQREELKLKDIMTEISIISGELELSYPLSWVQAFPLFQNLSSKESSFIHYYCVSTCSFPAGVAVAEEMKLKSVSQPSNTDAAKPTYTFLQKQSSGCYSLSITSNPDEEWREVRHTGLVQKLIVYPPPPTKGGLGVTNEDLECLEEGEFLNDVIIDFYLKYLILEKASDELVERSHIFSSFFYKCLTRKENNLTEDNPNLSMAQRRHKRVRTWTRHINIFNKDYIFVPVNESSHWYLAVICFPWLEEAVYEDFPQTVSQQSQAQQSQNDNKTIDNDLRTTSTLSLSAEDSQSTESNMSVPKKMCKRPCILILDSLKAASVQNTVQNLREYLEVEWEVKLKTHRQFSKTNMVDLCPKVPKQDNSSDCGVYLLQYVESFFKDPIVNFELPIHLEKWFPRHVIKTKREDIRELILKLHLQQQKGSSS
# Nonstructural protein 1 = Nonstructural protein 1 (Influenza A virus, UniProt Q194T2); type: functional, Influenza A virus (A/California/07/2009(H1N1))
# Streptococcus = experiment: Group A Streptococcus viability loss, dose response, counter-screen for streptokinase expression inhibitor project, luminescence, BacTiterGlo (AID 1915); type: functional, organism-based;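 note: potency for reduction of bacterial viability or growth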
# [6] = biological target: 26S proteasome non-ATPase regulatory subunit 14 (Homo sapiens, UniProt O00487); experiment: inhibition of proteasome subunit RPN11 – biochemical, fluorescence polarization, uHTS hits, confirmation (AID 602368); type: functional
# Sequence of 26S proteasome non-ATPase regulatory subunit 14 (O00487 whole entry): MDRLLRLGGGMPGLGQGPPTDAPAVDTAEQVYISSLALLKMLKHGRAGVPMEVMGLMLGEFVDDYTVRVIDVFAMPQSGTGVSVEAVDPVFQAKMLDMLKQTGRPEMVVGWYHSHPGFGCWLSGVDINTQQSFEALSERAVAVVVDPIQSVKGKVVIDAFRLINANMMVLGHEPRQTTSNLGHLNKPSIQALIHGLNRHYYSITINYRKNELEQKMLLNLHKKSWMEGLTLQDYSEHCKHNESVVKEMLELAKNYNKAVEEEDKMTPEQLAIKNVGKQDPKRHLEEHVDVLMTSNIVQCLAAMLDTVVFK
# [7] = biological target: 72 kDa type IV collagenase (Homo sapiens, UniProt P08253); experiment: Dose Response validation of uHTS RPN11 inhibitor hits using a MMP-2 Fluorescence assay.; type: functional
# Sequence of 72 kDa type IV collagenase (P08253 whole entry): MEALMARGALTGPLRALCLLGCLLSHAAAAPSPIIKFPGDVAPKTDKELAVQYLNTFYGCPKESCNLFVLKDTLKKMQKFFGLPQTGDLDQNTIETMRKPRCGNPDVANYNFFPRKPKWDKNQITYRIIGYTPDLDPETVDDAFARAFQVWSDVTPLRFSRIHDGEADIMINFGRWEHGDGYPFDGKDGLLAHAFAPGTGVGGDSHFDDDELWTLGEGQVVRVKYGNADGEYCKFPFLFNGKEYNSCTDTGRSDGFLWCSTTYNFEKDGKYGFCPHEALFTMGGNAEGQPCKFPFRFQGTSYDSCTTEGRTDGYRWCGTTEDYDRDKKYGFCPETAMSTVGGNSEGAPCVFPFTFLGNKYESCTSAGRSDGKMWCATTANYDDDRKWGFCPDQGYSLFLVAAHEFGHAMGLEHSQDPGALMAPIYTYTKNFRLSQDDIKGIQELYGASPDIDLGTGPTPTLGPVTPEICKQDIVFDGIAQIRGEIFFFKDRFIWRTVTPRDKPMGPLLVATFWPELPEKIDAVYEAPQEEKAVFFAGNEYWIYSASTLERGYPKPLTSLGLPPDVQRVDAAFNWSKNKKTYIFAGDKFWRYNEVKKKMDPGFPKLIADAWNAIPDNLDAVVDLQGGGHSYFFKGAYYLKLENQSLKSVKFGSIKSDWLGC
# [8] = system: Streptococcus sp. 'group A'; experiment: growth inhibition of control SK(-) GAS strain, dose response, counter-screen for streptokinase expression inhibitor project, luminescence, kanamycin, BacTiterGlo, confirmation (AID 1900); type: functional, organism-based
# Prothrombin = Prothrombin (Bos taurus, UniProt P00735); experiment: thrombin inhibition, dose response, biochemical, fluorescence polarization, uHTS hits (AID 602369); type: functional
# [9] = biological target: Neuropeptides B/W receptor type 1 (Homo sapiens, UniProt P48145); experiment: GPR7 antagonist potency, late-stage follow-up, cell-based, fluorescence, dose response, set 5 (AID 588566); type: functional
# Sequence of Neuropeptides B/W receptor type 1 (P48145 whole entry): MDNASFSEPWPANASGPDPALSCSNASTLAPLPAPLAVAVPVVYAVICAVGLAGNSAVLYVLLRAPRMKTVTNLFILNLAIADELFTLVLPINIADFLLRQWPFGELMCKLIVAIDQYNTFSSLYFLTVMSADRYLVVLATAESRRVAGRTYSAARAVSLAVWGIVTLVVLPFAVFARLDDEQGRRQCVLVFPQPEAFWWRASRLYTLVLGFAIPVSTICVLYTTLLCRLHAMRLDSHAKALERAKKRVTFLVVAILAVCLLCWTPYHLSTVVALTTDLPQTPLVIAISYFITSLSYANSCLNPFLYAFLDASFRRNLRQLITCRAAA
# [10] = biological target: Melanin-concentrating hormone receptor 1 (Homo sapiens, UniProt Q99705); experiment: Late-stage fluorescence-based counterscreen for antagonists of the G-protein coupled receptor 7 (GPR7): cell-based dose response assay to identify antagonists of the melanin-concentrating hormone receptor 1 (MCHR1) Set 5.; type: functional
# Sequence of Melanin-concentrating hormone receptor 1 (Q99705 whole entry): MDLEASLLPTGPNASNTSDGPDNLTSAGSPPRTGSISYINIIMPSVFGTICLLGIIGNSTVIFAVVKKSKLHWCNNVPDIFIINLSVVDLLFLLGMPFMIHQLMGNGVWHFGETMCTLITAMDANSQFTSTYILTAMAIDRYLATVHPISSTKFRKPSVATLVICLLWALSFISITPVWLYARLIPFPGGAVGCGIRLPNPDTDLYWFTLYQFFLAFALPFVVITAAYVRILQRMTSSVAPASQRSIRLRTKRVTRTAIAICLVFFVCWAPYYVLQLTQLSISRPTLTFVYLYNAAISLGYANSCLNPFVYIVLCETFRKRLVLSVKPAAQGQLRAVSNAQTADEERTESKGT
# [11] = biological target: Cyclin-dependent kinase 8 (Homo sapiens, UniProt P49336); experiment: Navigating the Kinome. Panel member name: CDK8; type: functional
# Sequence of Cyclin-dependent kinase 8 (P49336 whole entry): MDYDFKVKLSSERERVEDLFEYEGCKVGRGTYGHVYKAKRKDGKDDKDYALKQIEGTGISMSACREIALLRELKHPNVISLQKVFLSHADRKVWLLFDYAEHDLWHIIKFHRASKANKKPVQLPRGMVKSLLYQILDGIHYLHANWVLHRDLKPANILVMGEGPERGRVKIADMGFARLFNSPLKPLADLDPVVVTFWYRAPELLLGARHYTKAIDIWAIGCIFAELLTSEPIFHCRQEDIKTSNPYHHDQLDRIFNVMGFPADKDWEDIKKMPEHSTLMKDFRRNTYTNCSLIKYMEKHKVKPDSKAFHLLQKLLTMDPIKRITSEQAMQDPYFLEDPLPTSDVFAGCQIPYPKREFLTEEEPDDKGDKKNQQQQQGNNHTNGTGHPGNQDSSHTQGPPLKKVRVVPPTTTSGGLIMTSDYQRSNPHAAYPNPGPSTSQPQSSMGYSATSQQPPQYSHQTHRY
# [12] = biological target: Cyclin-dependent kinase 5 (Homo sapiens, UniProt Q00535); type: functional;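 note: CDK5 measured as one member of a kinase profiling panel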
# Sequence of Cyclin-dependent kinase 5 (Q00535 whole entry): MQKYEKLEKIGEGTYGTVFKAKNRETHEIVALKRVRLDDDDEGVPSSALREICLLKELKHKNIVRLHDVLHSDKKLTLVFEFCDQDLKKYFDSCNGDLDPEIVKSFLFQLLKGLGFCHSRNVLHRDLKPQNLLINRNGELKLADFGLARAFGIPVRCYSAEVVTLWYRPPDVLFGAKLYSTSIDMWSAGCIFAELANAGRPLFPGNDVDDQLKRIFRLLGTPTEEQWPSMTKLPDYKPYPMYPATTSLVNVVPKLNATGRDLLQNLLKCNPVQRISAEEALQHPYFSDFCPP
# [13] = biological target: T5, Apoptotic protease-activating factor 1 (Homo sapiens, UniProt O14727); experiment: SAR analysis of small molecule Activators of Apaf-1 in a Fluorescent assay.; type: functional; conditions: read-out: EC50_Mean;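 note: caspase-3 cleavage of fluorogenic Rh110 DEVD substrate downstream of apoptosome activation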
# T5 sequence (O14727 whole entry): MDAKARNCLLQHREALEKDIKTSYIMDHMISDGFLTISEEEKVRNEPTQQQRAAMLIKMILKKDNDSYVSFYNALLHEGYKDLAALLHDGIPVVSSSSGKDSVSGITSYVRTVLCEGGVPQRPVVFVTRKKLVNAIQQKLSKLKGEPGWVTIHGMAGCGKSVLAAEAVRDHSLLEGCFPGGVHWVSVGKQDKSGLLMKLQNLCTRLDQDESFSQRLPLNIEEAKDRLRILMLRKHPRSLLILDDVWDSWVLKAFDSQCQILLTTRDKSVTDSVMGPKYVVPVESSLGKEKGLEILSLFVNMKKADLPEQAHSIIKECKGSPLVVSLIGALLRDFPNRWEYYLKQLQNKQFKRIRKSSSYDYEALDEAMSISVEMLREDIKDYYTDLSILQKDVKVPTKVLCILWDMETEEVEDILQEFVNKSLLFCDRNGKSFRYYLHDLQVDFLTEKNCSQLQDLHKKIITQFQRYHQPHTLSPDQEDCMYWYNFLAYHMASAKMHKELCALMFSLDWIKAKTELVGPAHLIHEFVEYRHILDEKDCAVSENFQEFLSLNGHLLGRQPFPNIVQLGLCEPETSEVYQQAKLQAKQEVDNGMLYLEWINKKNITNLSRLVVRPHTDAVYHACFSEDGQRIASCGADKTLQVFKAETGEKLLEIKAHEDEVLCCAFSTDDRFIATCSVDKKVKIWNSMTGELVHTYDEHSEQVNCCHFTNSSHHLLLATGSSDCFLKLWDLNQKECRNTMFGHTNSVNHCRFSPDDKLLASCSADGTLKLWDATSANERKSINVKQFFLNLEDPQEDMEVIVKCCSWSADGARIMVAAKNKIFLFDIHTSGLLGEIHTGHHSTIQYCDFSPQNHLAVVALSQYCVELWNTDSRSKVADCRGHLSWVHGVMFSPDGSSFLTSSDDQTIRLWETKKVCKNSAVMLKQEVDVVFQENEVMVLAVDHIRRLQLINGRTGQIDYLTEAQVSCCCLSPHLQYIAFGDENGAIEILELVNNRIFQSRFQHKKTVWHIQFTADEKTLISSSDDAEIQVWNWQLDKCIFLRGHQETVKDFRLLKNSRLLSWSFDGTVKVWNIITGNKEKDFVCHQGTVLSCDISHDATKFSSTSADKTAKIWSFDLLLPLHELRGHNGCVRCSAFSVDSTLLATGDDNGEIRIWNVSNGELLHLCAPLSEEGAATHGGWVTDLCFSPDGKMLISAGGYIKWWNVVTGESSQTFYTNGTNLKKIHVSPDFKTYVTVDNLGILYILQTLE
# [14] = biological target: Dual specificity protein kinase CLK4 (Homo sapiens, UniProt Q9HAZ1); type: functional
# Sequence of Dual specificity protein kinase CLK4 (Q9HAZ1 whole entry, the tested form may be a part): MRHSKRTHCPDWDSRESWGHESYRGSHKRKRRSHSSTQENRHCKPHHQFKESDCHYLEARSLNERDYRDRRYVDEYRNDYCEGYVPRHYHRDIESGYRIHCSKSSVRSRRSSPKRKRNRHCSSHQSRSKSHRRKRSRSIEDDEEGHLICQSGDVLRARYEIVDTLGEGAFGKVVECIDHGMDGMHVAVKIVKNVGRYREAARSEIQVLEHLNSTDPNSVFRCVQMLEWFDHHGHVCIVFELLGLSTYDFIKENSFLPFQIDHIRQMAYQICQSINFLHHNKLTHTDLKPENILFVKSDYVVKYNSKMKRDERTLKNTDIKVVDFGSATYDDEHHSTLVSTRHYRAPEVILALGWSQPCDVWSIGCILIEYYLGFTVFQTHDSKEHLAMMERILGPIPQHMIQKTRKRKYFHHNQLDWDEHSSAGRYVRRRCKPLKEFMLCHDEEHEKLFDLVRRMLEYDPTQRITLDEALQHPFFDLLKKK
# [15] = ARNT/TACC3 interaction disruptors, potency, confirmation, biochemical, AlphaScreen, cherry-picked samples (AID 651703); type: functional, Homo sapiens;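 note: His-tagged ARNT PAS-B domain paired with GST-TACC3 E629A dimer coactivator fragment; potency of inhibitors that break up the complex and lower AlphaScreen signal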
# Sequence of Protein disulfide-isomerase (P07237 whole entry): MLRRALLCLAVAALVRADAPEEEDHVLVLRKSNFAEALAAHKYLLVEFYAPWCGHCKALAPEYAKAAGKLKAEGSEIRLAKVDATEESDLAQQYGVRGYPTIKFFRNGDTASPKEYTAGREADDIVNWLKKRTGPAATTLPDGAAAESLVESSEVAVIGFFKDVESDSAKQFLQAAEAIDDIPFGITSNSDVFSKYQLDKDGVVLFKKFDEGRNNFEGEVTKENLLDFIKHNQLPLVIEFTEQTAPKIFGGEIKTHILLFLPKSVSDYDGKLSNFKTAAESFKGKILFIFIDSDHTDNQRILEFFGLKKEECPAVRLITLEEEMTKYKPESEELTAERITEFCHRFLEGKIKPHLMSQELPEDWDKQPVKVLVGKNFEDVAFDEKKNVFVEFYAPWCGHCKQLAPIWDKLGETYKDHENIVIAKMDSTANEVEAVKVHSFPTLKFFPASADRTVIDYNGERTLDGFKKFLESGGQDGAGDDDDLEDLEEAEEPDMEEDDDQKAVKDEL
compound,measurement,setting,value
O=C1NC[C@H](Cc2ccc(O)cc2)N(CC2CCCCC2)C1=O,AC50,[1],19.5 µM (active)
COc1cccc2sc(N)nc12,AC50,Cytochrome P450 3A4,15.8 µM (inconclusive)
same,AC50,[2],50.1 µM (inconclusive)
COc1cc2cc(NC(C)=O)cc(NCCCO)c2cc1OC,IC50,[3],56 µM (active)
same,IC50,[4],16.9 µM (active)
same,IC50,Caspase-3,37.7 µM (active)
same,IC50,[5],29.3 µM (active)
CC(C)CC(=O)Nc1ccc2nc(NC(=O)c3ccccc3)sc2c1,IC50,[3],6.63 µM (active)
same,IC50,[4],6.09 µM (active)
same,IC50,Caspase-3,7.24 µM (active)
same,IC50,[5],3.07 µM (active)
C[C@H](CO)N1C[C@H](C)[C@@H](CN(C)Cc2ccc(Oc3ccccc3)cc2)Oc2c(NS(C)(=O)=O)cccc2C1=O,AC50,[1],19.5 µM (active)
O=[N+]([O-])c1ccc(O)c(/N=C/c2sc3ccccc3c2O)c1,IC50,Nonstructural protein 1,> 100 µM (active)
same,EC50,Streptococcus,9.08 µM (active)
same,IC50,[6],3.28 µM (active)
same,IC50,[7],> 100 µM (inactive)
same,EC50,[8],5.2 µM (active)
same,IC50,Prothrombin,2.57 µM (active)
N#Cc1ccccc1C(C#N)c1c(Cl)cnn(Cc2cccc3ccccc23)c1=O (stereo not drawn),IC50,[9],0.782 µM (active)
same,IC50,[10],9.7 µM (active)
C=C1c2ccccc2CC(CCN(C)C)c2ccccc21 (stereo not drawn),Ki,[11],1.26 µM (active)
same,Ki,[12],3.16 µM (active)
CC(Nc1ccccc1)C(=O)O (stereo not drawn),EC50,[13],> 100 µM (inactive)
COc1ccc(CCN(C)C(=O)CCc2ccc(Cl)c(Cl)c2)cc1OC,Ki,[14],2 µM (active)
same,Ki,[11],2.51 µM (active)
O=c1c(Oc2ccc3cc[nH]c3c2)c(Cl)cnn1Cc1cccc2ccccc12,IC50,[9],1.01 µM (active)
same,IC50,[10],18.6 µM (inactive)
Cn1c(-c2ccccc2)cnc1NC(=O)c1cc(-c2ccccc2)on1,AC50,[15],117 µM (active)
